{"source": "paper PMC10740425", "about": "“How Deep Learning in Antiviral Molecular Profiling Identified Anti-SARS-CoV-2 Inhibitors” (Biomedicines, 2023)", "tested_on": "SARS-CoV-2 beta variant", "set-up": "species or system BALB/C mice", "conditions": "mouse, in vivo, 5 mg/kg", "data": [{"smiles": "Cn1cnc([N+](=O)[O-])c1Sc1ncnc2nc[nH]c12", "note": "[azathioprine]", "values": [{"measurement": "lung viral titers compared to vehicle control", "result": "did not demonstrate a significant reduction in viral titers"}]}, {"smiles": "O=P(O)(O)OC[C@H]1O[C@@H](n2cnc3c(S)ncnc32)[C@H](O)[C@@H]1O", "note": "[thioinosinic acid]", "values": [{"measurement": "lung viral titers compared to vehicle control", "result": "approximately tenfold lower"}]}]}
